Experimental data taken from US8106003B2, “Peptides and methods for the treatment of inflammatory disease” (Auckland Uniservices Limited, priority 2004, dated 2012).
“Also recorded” adds a separate entry of the source. Non-standard residues stand in square brackets, D forms with d. Residues, ends and D or L forms follow the SMILES beside them. No end group written: not given here. *: point of attachment. Biotin = O=C1N[C@H]2[C@H](CS[C@H]2CCCCC(=O)*)N1

Tests used:
TK-1 T cells [1] = test: Peptide internalization and visualization in TK-1 cells; assay type: cell-based, mouse; conditions: confocal microscopy; for internalization of R9-fused peptide by TK-1 cells: 30 min incubation; for uptake of penetratin-fused peptide into TK-1 cells: 50 μM peptide, 1 h, FITC-streptavidin
Experimental: Peptide internalization and visualization. […] After washing with PBS, cells were resuspended into PBS/1% FCS and cytocentrifuged onto glass slides. Cytospin smears were fixed with 4% paraformaldehyde in PBS for 15 min at room temperature, washed twice with PBS and permeabilized in PBS containing 0.2% Triton X-100 for 10 min. Biotinylated peptide was detected by incubating the slides with streptavidin-FITC (Sigma, Mo.), and visualized using a Leica TCS 4D confocal laser microscope. Images were processed using Leica Scanware™ 4.2 A software and Adobe Photoshop 5.0.

[2] = test system: α4β7-mediated adhesion of TK-1 cells to VCAM-1; test: Cell adhesion assay: TK-1 cells to immobilised VCAM-1-Fc; assay type: cell-based, mouse; conditions: for inhibition of adhesion of CMFDA-labeled TK-1 cells to immobilized human VCAM-1-Fc: R9-fused L and D analogs of YDRREY, fluorescence readout; for inhibition of TK-1 cell adhesion to VCAM-1: Mn++ or PMA-activated cells preincubated with increasing concentrations of peptide
Experimental: (§1) Cell adhesion assays. Lab-Tek 16-well glass slides (Nunc) or flat-bottomed 96-well maxisorb plates (Nunc) were coated with purified mouse MAdCAM-1-Fc, human VCAM-1-Fc, and human ICAM-1-Fc (70 to 100 μl of 5 to 10 μg/ml), and incubated at 4° C. overnight. Slides were washed once with PBS, and blocked with FCS for 2 h at room temperature. Slides were washed with Hanks balanced salt solution (HBSS) containing 10 mM Hepes. Cells were either left unlabeled or labeled with the fluorescent dye chloromethyl fluorescein diacetate (CMFDA; Molecular Probes, Oregon), and activated by resuspension in HBSS containing 10 mM Hepes supplemented with 2 mM Ca^++ and 2 mM Mn^++. Cells were alternatively activated with 50 ng/ml PMA, or by incubating with AlF4^− (10 mM NaF and 40 µM AlCl3). They were preincubated with peptides at different concentrations for 10 min at room temperature, checked for viability by trypan blue exclusion, and then 10^6 cells added to each coated well and left to adhere for 30 min at room temperature. Non-adherent unlabeled cells in 16-well glass slides were removed by twice dipping slides gently into PBS, and adherent cells fixed in PBS containing 2% (v/v) glutaraldehyde for at least 3 h. The number of adherent cells was determined by counting the number of adherent cells in four independent fields at 100× magnification under an inverted microscope. Alternatively, non-adherent CMFDA-labeled cells in 96-well plates were removed by inverse centrifugation at 70×g for 5 min into 50 mM Tris pH 7.5, 150 mM NaCl, 2 mM MnCl2, followed by gentle washing with a pipette. The fluorescence of CMFDA-labeled adherent cells was measured using a VICTOR 1420 multilabel counter (Wallac). Unless otherwise stated, experiments were repeated in triplicate, using duplicate wells.

TK-1 T cells [3] = assay type: cell-based, mouse
[4] = test system: adhesion of H9 cells to VCAM-1; test: Cell adhesion assay: H9 cells to VCAM-1-Fc; assay type: cell-based, human; conditions: Mn++ or PMA-activated H9 cells
Experimental: as §1

[5] = test system: adhesion of H9 cells to MAdCAM-1; test: Cell adhesion assay: H9 cells to MAdCAM-1-Fc; assay type: cell-based, human; conditions: Mn++ or PMA-activated H9 cells
Experimental: as §1

[6] = test system: kinase(s) in TK-1 cell lysate; test: Assay to test whether β7 cytoplasmic domain peptides bind a kinase(s); assay type: biochemical, mouse; conditions: lysates of unactivated or AlF4−-activated TK-1 cells
Experimental: Assay to test whether β7 cytoplasmic domain peptides bind a kinase(s). TK-1 cells (3×10^6) were lysed in 1 ml of lysis buffer, and centrifuged at 12,000×g for 10 min at 4° C. Supernatants were precleared with 10 μl of Sepharose and then 10 μl of streptavidin-Sepharose. Cytoplasmic domain peptides were screened for their ability to associate with a kinase in lysates of TK-1 cells that were either left unactivated or had been activated with AlF4^−. Biotinylated peptides immobilized on 5 μl of streptavidin-Sepharose were incubated with 1 ml of lysis buffer containing 1 μl of cell lysate for 2 h at 4° C. with gentle shaking. The beads were washed thrice with ice-cold lysis buffer, once with kinase buffer, and were incubated with 30 μl kinase buffer and 0.5 to 1 μCi γ-ATP for 20 min at 30° C. Beads were washed five times, and radioactivity measured in a scintillation counter.

[7] = test system: α4β7-mediated adhesion of TK-1 cells to MAdCAM-1; test: Cell adhesion assay: TK-1 cells to immobilised MAdCAM-1-Fc; assay type: cell-based, mouse; conditions: for inhibition of TK-1 cell adhesion to MAdCAM-1: Mn++, PMA or AlF4−-activated cells preincubated with increasing concentrations of peptide
Experimental: as §1

[8] = test system: α4β7-mediated adhesion of TK-1 cells to RGD polymer; test: Cell adhesion assay: TK-1 cells to fibronectin-like polymer (RGD); assay type: cell-based, mouse; conditions: for inhibition of TK-1 cell adhesion to RGD polymer: Mn++ or PMA-activated cells preincubated with increasing concentrations of peptide
[9] = test system: TK-1 cells adhered to MAdCAM-1 and VCAM-1; test: Detachment of already adhered TK-1 cells (established focal adhesions); assay type: cell-based, mouse; conditions: Mn++ and PMA-activated cells, incubated 1 h with peptide after adhesion
Experimental: (§2) FIG. 5: Illustrates peptide β7-2 blocks ligand-induced clustering of α4β7 at the cell surface, but cannot disrupt established focal adhesions. (A) Peptide β7-2 blocks ligand-induced clustering of α4β7. TK-1 cells were preincubated with either the β7-2 or β7-3 peptides, or no peptide, and activated with AlF4^−. Ligand-induced clustering of α4β7 was induced by addition of MAdCAM-1-Fc, and cluster formation after 30 min was determined by staining cells with FITC-conjugated M293 mAb (anti-β7 subunit), followed by confocal microscopy. […] TK-1 (B, D) and H9 (C, E) cells activated with Mn^++, and PMA were adhered to glass slides coated with MAdCAM-1-Fc (B, C), and VCAM-1-Fc (D, E), and then incubated for 1 h with peptide β7-2. Cells bound were counted, and represent the mean±SD from four fields. Experiments were performed in triplicate.
(§3) Cell adhesion assays. Lab-Tek 16-well glass slides (Nunc) or flat-bottomed 96-well maxisorb plates (Nunc) were coated with purified mouse MAdCAM-1-Fc, human VCAM-1-Fc, and human ICAM-1-Fc (70 to 100 μl of 5 to 10 μg/ml), and incubated at 4° C. overnight. […] The number of adherent cells was determined by counting the number of adherent cells in four independent fields at 100× magnification under an inverted microscope. […] The fluorescence of CMFDA-labeled adherent cells was measured using a VICTOR 1420 multilabel counter (Wallac). […]

[10] = test system: MAdCAM-1-induced clustering of α4β7 on TK-1 cells; test: Confocal microscopy analysis of receptor clustering; assay type: cell-based, mouse; conditions: AlF4−-activated TK-1 cells, peptide 50 μM
Experimental: Confocal microscopy analysis of receptor clustering. TK-1 cells were incubated in the presence or absence of peptides (50 μM) for 1 h at room temperature, and cells were activated for 30 min at room temperature in HBSS containing 2 mM Ca++ and AlF4^−. Cells were incubated with MAdCAM-1-coated microspheres for 1 h on ice. They were washed with PBS containing 0.02% sodium azide, and fixed in 4% (w/v) paraformaldehyde in PBS for an additional 1 h. They were then stained with FITC-conjugated anti-β7 subunit M293 mAb, washed and fixed as above. Cells were mixed 1:1 with Citifluor glycerol/PBS solution, mounted on slides, and analyzed using a Leica TCS4D confocal laser scanning microscope equipped with an external argon-krypton laser (488 nm). Images were digitally recorded and printed on an Epson colour printer using Microsoft Power Point software.

[11] = test system: H9 cells adhered to MAdCAM-1 and VCAM-1; test: Detachment of already adhered H9 cells (established focal adhesions); assay type: cell-based, human; conditions: Mn++ and PMA-activated cells, incubated 1 h with peptide after adhesion
Experimental: as §2, §3

[12] = test system: adhesion of H9 cells to RGD polymer; test: Cell adhesion assay: H9 cells to RGD polymer; assay type: cell-based, human; conditions: data not shown

Compound | inhibition of H9 cell adhesion to VCAM-1 [4] | inhibition of H9 cell adhesion to MAdCAM-1 [5] | uptake of penetratin-fused peptide into TK-1 cells (TK-1 T cells [1]) | formation of a phosphorylated complex (kinase association / phosphorylation of immobilized peptide) [6] | inhibition of TK-1 cell adhesion to MAdCAM-1 [7] | inhibition of TK-1 cell adhesion to VCAM-1 [2] | inhibition of TK-1 cell adhesion to RGD polymer [8] | other results
N=C(N)NCCC[C@@H](NC(=O)CCCC[C@@H]1SC[C@@H]2NC(=O)N[C@@H]21)C(=O)N[C@H](CCCNC(=N)N)C(=O)N[C@H](CCCNC(=N)N)C(=O)N[C@H](CCCNC(=N)N)C(=O)N[C@H](CCCNC(=N)N)C(=O)N[C@H](CCCNC(=N)N)C(=O)N[C@H](CCCNC(=N)N)C(=O)N[C@H](CCCNC(=N)N)C(=O)N[C@H](CCCNC(=N)N)C(=O)N[C@H](Cc1ccc(O)cc1)C(=O)N[C@H](CC(=O)O)C(=O)N[C@H](CCCNC(=N)N)C(=O)N[C@H](CCCNC(=N)N)C(=O)N[C@H](CCC(=O)O)C(=O)N[C@H](Cc1ccc(O)cc1)C(=O)O [β7-13] (Biotin-[dR][dR][dR][dR][dR][dR][dR][dR][dR][dY][dD][dR][dR][dE][dY]-OH; N-terminus and C-terminus assumed) | – | – | – | – | – | – | – | internalization of R9-fused peptide by TK-1 cells (TK-1 T cells [1]): internalized; inhibition of adhesion of CMFDA-labeled TK-1 cells to immobilized human VCAM-1-Fc [2]: inhibit; inhibition of adhesion of CMFDA-labeled TK-1 cells to immobilized human VCAM-1-Fc ([2]; listed as D-amino acid form): as equally potent as the L-enantiomer; cytotoxic concentration (TK-1 T cells [3]; 2 h): exceeding 50 μM; cell death (TK-1 T cells [3]; at 100 μM, data not shown): 50%
QLNWKQDSNPLYKSAITTT [β7-4] | completely ineffective | completely ineffective | taken up | formed a phosphorylated complex | – | – | – | –
RLSVEIYDRREY [β7-2] | blocked | blocked | taken up | – | abrogated | abrogated | abrogated | blockade of TK-1 cell-binding to MAdCAM-1 ([7]; 100 μm of peptide): almost completely blocked; blockade of TK-1 cell-binding to VCAM-1 ([2]; 100 μm of peptide): almost completely blocked; reduction in TK-1 cell binding to the RGD polymer ([8]; 100 μm of peptide): 50%; detachment of TK-1 cells already adhered to MAdCAM-1 and VCAM-1 [9]: not able to detach; also recorded: cannot disrupt focal adhesions to detach cells; blockade of MAdCAM-1-induced clustering (redistribution) of α4β7 at the cell surface [10]: completely blocked; also recorded: blocks; detachment of H9 cells already adhered to MAdCAM-1 and VCAM-1 [11]: not able to detach; also recorded: cannot disrupt focal adhesions to detach cells
YDRREY [β7-8] (Biotin-RQIKIWFQNRRMKWKKYDRREY; not fully specified) | also blocked | also blocked | taken up | formed a phosphorylated complex | retained the ability to block | retained the ability to block | retained the ability to block | inhibition of H9 cell adhesion to RGD polymer [12]: also blocked
YDRREY [β7-12] | – | – | – | – | inhibited | – | – | internalization of R9-fused peptide by TK-1 cells (TK-1 T cells [1]): rapidly internalized; inhibition of adhesion of CMFDA-labeled TK-1 cells to immobilized human VCAM-1-Fc [2]: inhibit
β7-5: extreme C-terminal control peptide of β7cyt (SEQ ID NO. 23) fused to penetratin (Biotin-RQIKIWFQNRRMKWKKTTTINPRFQEADSPTL; not fully specified) | completely ineffective | completely ineffective | taken up | did not form a phosphorylated complex | – | – | – | –
β7-7: β7cyt residues 729-735 (SEQ ID NO. 24) fused to penetratin (Biotin-RQIKIWFQNRRMKWKKRLSVEIY; not fully specified) | – | – | taken up | did not form a phosphorylated complex | completely ineffective | completely ineffective | completely ineffective | –
β7-10: peptide β7-12 truncated to remove tyrosine 735 (SEQ ID NO. 26), fused to r9 (Biotin-[dR][dR][dR][dR][dR][dR][dR][dR][dR]DRREY) | – | – | – | formed a phosphorylated complex | not able to inhibit | – | – | –
β7-11: peptide β7-12 truncated to remove tyrosine 740 (SEQ ID NO. 27), fused to r9 (Biotin-[dR][dR][dR][dR][dR][dR][dR][dR][dR]YDRRE) | – | – | – | formed a phosphorylated complex | not able to inhibit | – | – | –
